Data reported in US6525001B1, “Substituted pyrimidine and pyridine herbicides” (Mid-American Commercialization Corporation, priority 1997, dated 2003).

Assays:
Format in all cases: in vivo
Design in all cases: key: 0 is no effect; 10 is complete control
[1] = system: bedstraw (Galium aparine); experiment: Test B pre-/postemergence; details: for Bedstraw plant response rating: Preemergence
How it was run: (§1)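 Response scores run from 0, meaning no effect, to 10, meaning complete control, assigned by eye relative to controls twelve to sixteen days after spraying. Treatment was both preemergence on planted seed and postemergence on plants at the 1- to 4-leaf stage.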

[2] = system: blackgrass (Alopecurus myosuroides); experiment: Test B pre-/postemergence; details: for Blackgrass plant response rating: Preemergence
How it was run: as §1

[3] = system: broadleaf signalgrass (Brachiaria decumbens); experiment: Test B pre-/postemergence; details: for B. signalgrass plant response rating: Preemergence
How it was run: as §1

[4] = system: cocklebur (Xanthium strumarium); experiment: Test B pre-/postemergence; details: for Cocklebur plant response rating: Preemergence
How it was run: as §1

corn (Zea mays) = experiment: Test B pre-/postemergence; details: for Corn plant response rating: Preemergence
How it was run: as §1

[5] = system: crabgrass (Digitaria sanguinalis); experiment: Test B pre-/postemergence; details: for Crabgrass plant response rating: Preemergence
How it was run: as §1

[6] = system: giant foxtail (Setaria faberii); experiment: Test B pre-/postemergence
How it was run: as §1

[7] = system: momingglory (Ipomoea hederacea); experiment: Test B pre-/postemergence
How it was run: as §1

[8] = system: pigweed (Amaranthus retroflexus); experiment: Test B pre-/postemergence
How it was run: as §1

[9] = system: purple nutsedge (Cyperus rotundus); experiment: Test B pre-/postemergence
How it was run: as §1

rape (Brassica napus) = experiment: Test B pre-/postemergence
How it was run: as §1

soybean (Glycine max) = experiment: Test B pre-/postemergence
How it was run: as §1

[10] = system: sugar beet (Beta vulgaris); experiment: Test B pre-/postemergence
How it was run: as §1

[11] = system: velvetleaf (Abutilon theophrasti); experiment: Test B pre-/postemergence
How it was run: as §1

[12] = system: wheat (Triticum aestivum); experiment: Test B pre-/postemergence
How it was run: as §1

wild oat (Avena fatua) = experiment: Test B pre-/postemergence
How it was run: as §1

[13] = system: bamyardgrass (Echinochloa crus-galli); experiment: Test B flood test
How it was run: (§2)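 Each value is a visual injury score relative to controls, with 10 meaning complete control and 0 no effect. Evaluation took place twelve to sixteen days after the 2-leaf-stage plants were treated and kept in the greenhouse.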

[14] = system: duck salad (Heteranthera limosa); experiment: Test B flood test
How it was run: as §2

rice (Oryza sativa) = experiment: Test B flood test
How it was run: as §2

[15] = system: smallflower flatsedge (Cyperus difformis); experiment: Test B flood test
How it was run: as §2

[16] = Rate 250 g/ha, Postemergence (so in the source)
[17] = Rate 62 g/ha, Postemergence (flood test)
[18] = Rate 125 g/ha, Postemergence, flood test
[19] = Rate 250 g/ha, Postemergence (flood test species)
[20] = Rate 125 g/ha, Postemergence section (flood test species)

Structure (SMILES): Cc1cnc(-c2ccc(F)cc2F)nc1Cc1cccc(C#N)c1 [Compound 34]
- Plant response rating, Bedstraw ([1]; Rate 62 g/ha, Postemergence): 2
- Bedstraw plant response rating ([1]; Rate 62 g/ha): 0
- Plant response rating, Bedstraw ([1]; Rate 125 g/ha, Postemergence): 3
- Bedstraw plant response rating ([1]; Rate 125 g/ha): 0
- Plant response rating, Bedstraw ([1]; Rate 250 g/ha, Postemergence): 7
- Plant response rating, Bedstraw [1, 16]: 0
- Plant response rating, Blackgrass ([2]; Rate 62 g/ha, Postemergence): 0
- Blackgrass plant response rating ([2]; Rate 62 g/ha): 0
- Plant response rating, Blackgrass ([2]; Rate 125 g/ha, Postemergence): 1
- Blackgrass plant response rating ([2]; Rate 125 g/ha): 0
- Plant response rating, Blackgrass ([2]; Rate 250 g/ha, Postemergence): 1
- Plant response rating, Blackgrass [2, 16]: 0
- Plant response rating, B. signalgrass ([3]; Rate 62 g/ha, Postemergence): 1
- B. signalgrass plant response rating ([3]; Rate 62 g/ha): 0
- Plant response rating, B. signalgrass ([3]; Rate 125 g/ha, Postemergence): 1
- B. signalgrass plant response rating ([3]; Rate 125 g/ha): 0
- Plant response rating, B. signalgrass ([3]; Rate 250 g/ha, Postemergence): 1
- Plant response rating, B. signalgrass ([3]; Rate 250 g/ha, Postemergence as printed in head r139 (second section for compounds 26-50)): 1
- Plant response rating, Cocklebur ([4]; Rate 62 g/ha, Postemergence): 2
- Cocklebur plant response rating ([4]; Rate 62 g/ha): 0
- Plant response rating, Cocklebur ([4]; Rate 125 g/ha, Postemergence): 2
- Cocklebur plant response rating ([4]; Rate 125 g/ha): 0
- Plant response rating, Cocklebur ([4]; Rate 250 g/ha, Postemergence): 8
- Plant response rating, Cocklebur [4, 16]: 0
- Plant response rating, Corn (corn (Zea mays); Rate 62 g/ha, Postemergence): 1
- Corn plant response rating (corn (Zea mays); Rate 62 g/ha): 0
- Plant response rating, Corn (corn (Zea mays); Rate 125 g/ha, Postemergence): 1
- Corn plant response rating (corn (Zea mays); Rate 125 g/ha): 0
- Plant response rating, Corn (corn (Zea mays); Rate 250 g/ha, Postemergence): 1
- Plant response rating, Corn (corn (Zea mays); [16]): 0
- Plant response rating, Crabgrass ([5]; Rate 62 g/ha, Postemergence): 0
- Crabgrass plant response rating ([5]; Rate 62 g/ha): 0
- Plant response rating, Crabgrass ([5]; Rate 125 g/ha, Postemergence): 1
- Crabgrass plant response rating ([5]; Rate 125 g/ha): 0
- Plant response rating, Crabgrass ([5]; Rate 250 g/ha, Postemergence): 1
- Plant response rating, Crabgrass [5, 16]: 1
- Plant response rating, Giant foxtail ([6]; Rate 62 g/ha, Postemergence): 0
- Giant foxtail plant response rating ([6]; Rate 62 g/ha, Preemergence): 0
- Giant foxtail plant response rating ([6]; Rate 125 g/ha, Postemergence): 1
- Giant foxtail plant response rating ([6]; Rate 125 g/ha, Preemergence): 0
- Plant response rating, Giant foxtail ([6]; Rate 250 g/ha, Postemergence): 1
- Plant response rating, Giant foxtail [6, 16]: 1
- Plant response rating, Morningglory ([7]; Rate 62 g/ha, Postemergence): 1
- Morningglory plant response rating ([7]; Rate 62 g/ha, Preemergence): 0
- Morningglory plant response rating ([7]; Rate 125 g/ha, Postemergence): 1
- Morningglory plant response rating ([7]; Rate 125 g/ha, Preemergence): 0
- Plant response rating, Morningglory ([7]; Rate 250 g/ha, Postemergence): 2
- Plant response rating, Morningglory [7, 16]: 0
- Plant response rating, Redroot pigweed ([8]; Rate 62 g/ha, Postemergence): 1
- Redroot pigweed plant response rating ([8]; Rate 62 g/ha, Preemergence): 0
- Redroot pigweed plant response rating ([8]; Rate 125 g/ha, Postemergence): 3
- Redroot pigweed plant response rating ([8]; Rate 125 g/ha, Preemergence): 0
- Plant response rating, Redroot pigweed ([8]; Rate 250 g/ha, Postemergence): 6
- Plant response rating, Redroot pigweed [8, 16]: 2
- Plant response rating, Nutsedge ([9]; Rate 62 g/ha, Postemergence): 0
- Nutsedge plant response rating ([9]; Rate 62 g/ha, Preemergence): 0
- Nutsedge plant response rating ([9]; Rate 125 g/ha, Postemergence): 0
- Nutsedge plant response rating ([9]; Rate 125 g/ha, Preemergence): 0
- Plant response rating, Nutsedge ([9]; Rate 250 g/ha, Postemergence): 0
- Plant response rating, Nutsedge [9, 16]: 0
- Plant response rating, Rape (rape (Brassica napus); Rate 62 g/ha, Postemergence): 2
- Rape plant response rating (rape (Brassica napus); Rate 62 g/ha, Preemergence): 0
- Rape plant response rating (rape (Brassica napus); Rate 125 g/ha, Postemergence): 3
- Rape plant response rating (rape (Brassica napus); Rate 125 g/ha, Preemergence): 0
- Plant response rating, Rape (rape (Brassica napus); Rate 250 g/ha, Postemergence): 3
- Plant response rating, Rape (rape (Brassica napus); [16]): 0
- Plant response rating, Soybean (soybean (Glycine max); Rate 62 g/ha, Postemergence): 1
- Soybean plant response rating (soybean (Glycine max); Rate 62 g/ha, Preemergence): 0
- Soybean plant response rating (soybean (Glycine max); Rate 125 g/ha, Postemergence): 2
- Plant response rating, Soybean (soybean (Glycine max); Rate 125 g/ha, Preemergence): 0
- Plant response rating, Soybean (soybean (Glycine max); Rate 250 g/ha, Postemergence): 2
- Plant response rating, Soybean (soybean (Glycine max); [16]): 0
- Plant response rating, Sugarbeets ([10]; Rate 62 g/ha, Postemergence): 8
- Sugarbeets plant response rating ([10]; Rate 62 g/ha, Preemergence): 0
- Sugarbeets plant response rating ([10]; Rate 125 g/ha, Postemergence): 8
- Plant response rating, Sugarbeets ([10]; Rate 125 g/ha, Preemergence): 0
- Plant response rating, Sugarbeets ([10]; Rate 250 g/ha, Postemergence): 9
- Plant response rating, Sugarbeets [10, 16]: 0
- Plant response rating, Velvetleaf ([11]; Rate 62 g/ha, Postemergence): 1
- Velvetleaf plant response rating ([11]; Rate 62 g/ha, Preemergence): 0
- Velvetleaf plant response rating ([11]; Rate 125 g/ha, Postemergence): 1
- Plant response rating, Velvetleaf ([11]; Rate 125 g/ha, Preemergence): 0
- Plant response rating, Velvetleaf ([11]; Rate 250 g/ha, Postemergence): 1
- Plant response rating, Velvetleaf [11, 16]: 0
- Wheat plant response rating ([12]; Rate 62 g/ha, Postemergence): 0
- Wheat plant response rating ([12]; Rate 62 g/ha, Preemergence): 0
- Wheat plant response rating ([12]; Rate 125 g/ha, Postemergence): 1
- Plant response rating, Wheat ([12]; Rate 125 g/ha, Preemergence): 0
- Plant response rating, Wheat ([12]; Rate 250 g/ha, Postemergence): 1
- Plant response rating, Wheat [12, 16]: 0
- Wild oats plant response rating (wild oat (Avena fatua); Rate 62 g/ha, Postemergence): 0
- Wild oats plant response rating (wild oat (Avena fatua); Rate 62 g/ha, Preemergence): 0
- Wild oats plant response rating (wild oat (Avena fatua); Rate 125 g/ha, Postemergence): 1
- Plant response rating, Wild oats (wild oat (Avena fatua); Rate 125 g/ha, Preemergence): 0
- Plant response rating, Wild oats (wild oat (Avena fatua); Rate 250 g/ha, Postemergence): 2
- Plant response rating, Wild oats (wild oat (Avena fatua); [16]): 0
- Plant response rating, Barnyardgrass [13, 17]: 0
- Plant response rating, Barnyardgrass [13, 18]: 0
- Plant response rating, Barnyardgrass [13, 19]: 1
- Plant response rating, Ducksalad [14, 17]: 0
- Plant response rating, Ducksalad [14, 18]: 0
- Plant response rating, Ducksalad [14, 19]: 0
- Plant response rating, Rice (rice (Oryza sativa); [17]): 1
- Rice plant response rating (rice (Oryza sativa); [20]): 1
- Plant response rating, Rice (rice (Oryza sativa); [19]): 1
- Plant response rating, S. Flatsedge [15, 17]: 2
- S. Flatsedge plant response rating [15, 20]: 2
- Plant response rating, S. Flatsedge [15, 19]: 3
